Data taken from patent US5220017A, “Cholecystokinin antagonists” (Merck & Co., Inc., priority 1992, dated 1993).
pIC50: −log10 of the molar value. Non-standard residues stand in square brackets, D forms with d. Residues, ends and D or L forms follow the SMILES beside them. *: point of attachment. sY = N[C@@H](Cc1ccc(OS(=O)(=O)O)cc1)C(=O)O; Cbz = O=C(OCc1ccccc1)*; Boc = CC(C)(C)OC(=O)*

Key:
CCK receptor = settings: literature, in words; cited from earlier work
[1] = molecular target: T1, CCK receptor (guinea pig brain cortex) (Cavia porcellus, UniProt H0VZC5); assay: CCK Receptor Binding (Brain), 125I-CCK-8 displacement; design: species or system guinea pig (male Hartley); settings: guinea pig cortex membranes, 50 pM 125I-CCK-8, 25° C., 2 hours, pH 6.5
T1 construct: the cortex was removed and homogenized in 25 mL ice-cold 0.32M sucrose; from tissue; host or cells: brain cortex P2 membranes, male Hartley guinea pig
T1 sequence (H0VZC5 1-426): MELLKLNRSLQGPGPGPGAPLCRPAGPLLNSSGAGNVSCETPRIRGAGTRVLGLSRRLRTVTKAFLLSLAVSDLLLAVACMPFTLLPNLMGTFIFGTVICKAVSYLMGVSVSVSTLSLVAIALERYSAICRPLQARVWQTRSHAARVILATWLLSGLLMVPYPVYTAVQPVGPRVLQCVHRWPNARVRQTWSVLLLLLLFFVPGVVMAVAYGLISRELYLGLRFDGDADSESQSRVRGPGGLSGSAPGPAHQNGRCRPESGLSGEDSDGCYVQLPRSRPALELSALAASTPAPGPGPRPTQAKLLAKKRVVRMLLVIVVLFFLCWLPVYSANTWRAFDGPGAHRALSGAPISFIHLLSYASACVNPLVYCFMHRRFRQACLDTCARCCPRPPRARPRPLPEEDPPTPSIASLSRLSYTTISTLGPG
Method: 2. CCK Receptor Binding (Brain)
CCK-8 sulphated was radiolabelled and the binding was performed according to the description for the pancreas method with minor modifications.
Male Hartley guinea pigs (300-500 g) were sacrificed by decapitation and the cortex was removed and homogenized in 25 mL ice-cold 0.32M sucrose. The homogenates were centrifuged at 1000 g for 10 minutes and the resulting supernatant was recentrifuged at 20,000 g for 20 minutes. […] All assays were run in duplicate. The reaction mixtures were incubated at 25° C. for 2 hours and then the reaction was terminated on Whatman GF/C filters by rapid filtration (Brandell 24 well cell Harvester) with 3×5 ml washes of cold 100 mM NaCl. The radioactivity on the filters was then counted with a LKB gamma counter.
Effect of The Compounds of Formula I on ^125 I-CCK-8 receptor binding
(§1) Drug displacement studies were performed with at least 10 concentrations of compounds of formula 1 and the IC50 values were determined by regression analysis.

[2] = molecular target: T2, CCK receptor (rat pancreas) (Rattus norvegicus, UniProt P30551); assay: CCK Receptor Binding (Pancreas), 125I-CCK-8 displacement; design: species or system rat (male Sprague-Dawley)
T2 construct: The whole pancreas was dissected free of fat tissue and was homogenized; from tissue; host or cells: whole pancreas membranes, male Sprague-Dawley rat
T2 sequence (P30551 1-444): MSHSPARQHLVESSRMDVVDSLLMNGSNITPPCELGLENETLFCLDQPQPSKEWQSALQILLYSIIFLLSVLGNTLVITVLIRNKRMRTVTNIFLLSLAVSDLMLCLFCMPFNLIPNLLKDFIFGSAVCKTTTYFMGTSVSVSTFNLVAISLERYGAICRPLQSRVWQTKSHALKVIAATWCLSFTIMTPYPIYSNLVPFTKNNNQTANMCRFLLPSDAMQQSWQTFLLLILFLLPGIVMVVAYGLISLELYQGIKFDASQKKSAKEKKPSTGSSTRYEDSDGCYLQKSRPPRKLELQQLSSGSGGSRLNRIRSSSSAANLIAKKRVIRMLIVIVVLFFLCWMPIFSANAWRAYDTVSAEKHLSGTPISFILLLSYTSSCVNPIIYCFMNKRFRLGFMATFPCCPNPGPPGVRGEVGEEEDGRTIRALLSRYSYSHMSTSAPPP
Method: 1. CCK Receptor Binding (Pancreas)
CCK-8 sulphated was radiolabelled with ^125 I-Bolton Hunter reagent (2000 Ci/mmole). Receptor binding was performed according to Chang and Lotti (Proc. Natl. Acad. Sci. 83, 4923-4926, 1986) with minor modifications.
Male Sprague-Dawley rats (150-200 g) were sacrificed by decapitation. The whole pancreas was dissected free of fat tissue and was homogenized in 25 volumes of ice-cold 10 mM Hepes buffer with 0.1% soya bean trypsin inhibitor (pH 7.4 at 25° C.) with a Kinematica Polytron. The homogenates were centrifuged at 47,800 g for 10 min. Pellets were resuspended in 10 volumes of binding assay buffer (20 mM Hepes, 1 mM EGTA, 5 mM MgCl2, 150 mM NaCl, bacitracin 0.25 mg/ml, soya bean trypsin inhibitor 0.1 mg/ml, and bovine serum albumin 2 mg/ml, pH 6.5 at 25° C.) using a teflon homogenizer, 15 strokes at 500 rpm. The homogenate was further diluted in binding assay buffer to give a final concentration of 0.5 mg original wet weight/1 ml buffer. […] All assays were run in duplicate. […] The radioactivity on the filters was counted with a LKB gamma counter. […]
as §1

gastrin = settings: literature, in words; cited from earlier work
CCK-B receptors = settings: literature, in words; cited from earlier work

For `CSCC[C@H](NC(=O)OC(C)(C)C)C(=O)N[C@@H](CC(=O)O)C(=O)N[C@@H](Cc1ccccc1)C(N)=O` [Boc-Met-Asp-Phe-NH2] (Boc-Met-Asp-Phe-NH2), the CCK antagonist/agonist character (CCK receptor) is listed as “can function as CCK antagonists”.
For `CCCC(=O)Nc1nc2c(ncn2C2O[C@H]3COP(=O)(O)O[C@@H]3[C@@H]2OC(=O)CCC)c(=O)[nH]1` (stereo partly shown) [dibutyryl cyclic GMP], the CCK antagonist/agonist character (CCK receptor) is listed as “most potent”.
In the case of `CSCC[C@H](NC(=O)[C@H](Cc1ccc(OS(=O)(=O)O)cc1)NC(=O)OCc1ccccc1)C(=O)NCC(=O)N[C@@H](Cc1c[nH]c2ccccc12)C(=O)N[C@@H](CCSC)C(=O)N[C@@H](CC(=O)O)C(N)=O` [Cbz-Tyr(SO3 H)-Met-Gly-Trp-Met-Asp-NH2] (Cbz-[sY]MGWMD-NH2), the CCK antagonist/agonist character (CCK receptor) is listed as “partial agonist”.
`Cc1cccc(N(CCC(=O)O)C(=O)NC2N=C(c3ccccc3)c3ccccc3N(C)C2=O)c1` (stereo not shown) [Example 1, N-{1,3-Dihydro-1-methyl-2-oxo-5-phenyl-1H-1,4-benzodiazepin-3-yl}-N'-carboxyethyl-N'-{[3-methylphenyl]-urea}] gave a pIC50 [1] of 5.43 and a pIC50 [2] of under 5.52.
For `CCCN(CCC)C(=O)C(CCC(=O)O)NC(=O)c1ccccc1` (stereo not shown) [proglumide], the “gastrin antagonism in vitro” value (gastrin) is listed as “very weak in vitro antagonists”.
In the case of `CSCC[C@H](N)C(=O)N[C@@H](CC(=O)O)C(=O)N[C@@H](Cc1ccccc1)C(N)=O` [Met-Asp-Phe-NH2] (H-Met-Asp-Phe-NH2), the CCK antagonist/agonist character (CCK receptor) is listed as “can function as CCK antagonists”.
For `Cc1cccc(NC(=O)N[C@@H]2N=C(c3ccccc3)c3ccccc3N(C)C2=O)c1` [(R)-N-(2,3-dihydro-1-methyl-2-oxo-5-phenyl-1H-1,4-benzodiazepin-3-yl)-N^1-(3-methylphenyl) urea], the “CCK-B antagonist potency and selectivity” value (CCK-B receptors) is given as “potent and selective antagonist of CCK-B receptors”.
Work on `Cc1cccc(NC(=O)N(CCC(=O)O)C2N=C(c3ccccc3)c3ccccc3N(C)C2=O)c1` (stereo not shown) [Example 2, N-{1,3-Dihydro-1-methyl-2-oxo-5-phenyl-1H-1,4-benzodiazepin-3-yl}-N-carboxyethyl-N'-{[3-methylphenyl]-urea}] yielded a pIC50 [1] of 6.29 and a pIC50 [2] of under 5.52.
